The source of these data is ChEMBL document CHEMBL1146620, “Structure-activity relationships of the peptide deformylase inhibitor BB-3497: modification of the methylene spacer and the P1' side chain” (Bioorg Med Chem Lett, 2003).

The test system of one experiment is Escherichia coli. Nature of the experiment: Antibacterial activity against Escherichia coli. The experiment is classed as functional.
The next experiment concerns Staphylococcus capitis. Nature of the experiment: Antibacterial activity against Staphylococcus capitis. The format is functional.
The target of experiment [1] is Peptide deformylase (Escherichia coli) (UniProt P0A6K3). Nature of the experiment: Inhibition against Escherichia coli Peptide deformylase was measured at a concentration of 1 uM.
Chain of Peptide deformylase (Escherichia coli) (P0A6K3 whole entry, looked up): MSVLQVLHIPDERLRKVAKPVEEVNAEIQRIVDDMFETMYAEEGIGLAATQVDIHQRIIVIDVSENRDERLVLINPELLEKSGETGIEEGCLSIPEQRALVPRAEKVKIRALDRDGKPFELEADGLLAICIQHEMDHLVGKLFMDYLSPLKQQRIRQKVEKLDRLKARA

In brackets after ≈: the same amount, converted by molar mass.

A word on the MIC: it is the lowest concentration that inhibits growth of the organism. Read a low MIC as a more susceptible organism. Usually inhibition stands for the relative decrease from the control value, in per cent.

`CN(C)C(=O)[C@@H](NC(=O)[C@H](CC1CCCC1)CN(O)C=O)C(C)(C)C`: the minimum inhibitory concentration (MIC) in the experiment on Escherichia coli and with Staphylococcus capitis was 12.5 µM (≈ 4.44 µg/mL) in each case.

`CCSC[C@H](CN(O)C=O)C(=O)N[C@H](C(=O)N(C)C)C(C)(C)C`: the values for the minimal inhibitory concentration (MIC) with Escherichia coli and in the experiment with Staphylococcus capitis were 25 µM (≈ 8.69 µg/mL) and more than 200 µM, respectively.

`CN(C)C(=O)[C@@H](NC(=O)[C@@H](CN(O)C=O)C1CCCC1)C(C)(C)C`: the minimal inhibitory concentration (MIC) in the experiment with Escherichia coli and in the experiment on Staphylococcus capitis was more than 200 µM in each case.

`CC[C@H](CN(O)C=O)C(=O)N[C@H](C(=O)N(C)C)C(C)(C)C`: the MIC against Escherichia coli was 200 µM (≈ 60.3 µg/mL); against Staphylococcus capitis, more than 200 µM.

Take `CC(C)CC[C@H](CN(O)C=O)C(=O)N[C@H](C(=O)N(C)C)C(C)(C)C`: the values for the MIC in the experiment on Escherichia coli and with Staphylococcus capitis were 50 µM (≈ 17.2 µg/mL) and 200 µM (≈ 68.7 µg/mL), respectively.

In the case of `CN(C)C(=O)[C@@H](NC(=O)[C@@H](CN(O)C=O)CN1CCCCC1)C(C)(C)C`, the MIC against Escherichia coli and against Staphylococcus capitis was more than 200 µM throughout.

As for `COc1ccc(C[C@H](CN(O)C=O)C(=O)N[C@H](C(=O)N(C)C)C(C)(C)C)cc1`, the MIC against Escherichia coli and in the experiment with Staphylococcus capitis was more than 200 µM throughout.

As for `C=CCC[C@H](CN(O)C=O)C(=O)N[C@H](C(=O)N(C)C)C(C)(C)C`, the MIC was 25 µM (≈ 8.19 µg/mL) with Escherichia coli and 200 µM (≈ 65.5 µg/mL) with Staphylococcus capitis.

Turning to `CCC[C@H](CN(O)C=O)C(=O)N[C@H](C(=O)N(C)C)C(C)(C)C`, the figures for the MIC in the experiment on Escherichia coli and in the experiment with Staphylococcus capitis were 50 µM (≈ 15.8 µg/mL) and more than 200 µM, respectively.

The compound `CCCC[C@H](C(=O)N[C@H](C(=O)N(C)C)C(C)(C)C)N(O)C=O` displayed an inhibition in experiment [1] of 30%. Further, the minimal inhibitory concentration (MIC) with Escherichia coli and with Staphylococcus capitis was more than 200 µM each time.

`CC#CC[C@H](CN(O)C=O)C(=O)N[C@H](C(=O)N(C)C)C(C)(C)C`: the values for the MIC against Escherichia coli and against Staphylococcus capitis were 50 µM (≈ 16.3 µg/mL) and 100 µM (≈ 32.5 µg/mL), respectively.

Take `CCCC[C@@H](CN(O)C=O)C(=O)N[C@H](C(=O)N(C)C)C(C)(C)C`: the MIC against Escherichia coli and with Staphylococcus capitis was more than 200 µM each time.

On to `CC(C)[C@H](CN(O)C=O)C(=O)N[C@H](C(=O)N(C)C)C(C)(C)C`, for which the MIC in the experiment on Escherichia coli and against Staphylococcus capitis was more than 200 µM in each case.

Consider `CCCCCCC[C@H](CN(O)C=O)C(=O)N[C@H](C(=O)N(C)C)C(C)(C)C`, for which the MIC against Escherichia coli and in the experiment on Staphylococcus capitis was more than 200 µM in each case.

On to `CCCC[C@H](CCN(O)C=O)C(=O)N[C@H](C(=O)N(C)C)C(C)(C)C`, for which the MIC in the experiment with Escherichia coli and in the experiment on Staphylococcus capitis was more than 200 µM in each case.

On to `CN(C)C(=O)[C@@H](NC(=O)[C@@H](CN(O)C=O)c1ccc(Cl)cc1)C(C)(C)C`, for which the MIC against Escherichia coli and in the experiment on Staphylococcus capitis was more than 200 µM in each case.

With `CCCC[C@@H](C(=O)N[C@H](C(=O)N(C)C)C(C)(C)C)C(C)N(O)C=O` (some centres undefined), the MIC against Escherichia coli and in the experiment on Staphylococcus capitis was more than 200 µM in each case.

As for `CN(C)C(=O)[C@@H](NC(=O)[C@H](CC1CCCCC1)CN(O)C=O)C(C)(C)C`, the MIC with Escherichia coli came out at 50 µM (≈ 18.5 µg/mL); in the experiment with Staphylococcus capitis, 25 µM (≈ 9.24 µg/mL).

With `CC(C)C[C@H](CN(O)C=O)C(=O)N[C@H](C(=O)N(C)C)C(C)(C)C`, the figures for the MIC in the experiment on Escherichia coli and with Staphylococcus capitis were 100 µM (≈ 32.9 µg/mL) and 200 µM (≈ 65.9 µg/mL), respectively.

Take `CCCCCC[C@H](CN(O)C=O)C(=O)N[C@H](C(=O)N(C)C)C(C)(C)C`: the results for the MIC against Escherichia coli and in the experiment with Staphylococcus capitis were 100 µM (≈ 35.7 µg/mL) and more than 200 µM, respectively.

For `CN(C)C(=O)[C@@H](NC(=O)[C@H](Cc1ccccc1)CN(O)C=O)C(C)(C)C`, the MIC in the experiment with Escherichia coli worked out at 25 µM (≈ 9.09 µg/mL); against Staphylococcus capitis, 50 µM (≈ 18.2 µg/mL).

Compound `CCCC[C@@H](C(=O)N[C@H](C(=O)N(C)C)C(C)(C)C)N(O)C=O` came in with an inhibition in experiment [1] of 20%. The MIC against Escherichia coli and in the experiment on Staphylococcus capitis was more than 200 µM in each case.

As to `CCCCCCCC[C@H](CN(O)C=O)C(=O)N[C@H](C(=O)N(C)C)C(C)(C)C`, the MIC in the experiment with Escherichia coli and in the experiment on Staphylococcus capitis was more than 200 µM throughout.

As to `C=CC[C@H](CN(O)C=O)C(=O)N[C@H](C(=O)N(C)C)C(C)(C)C`, the results for the MIC in the experiment on Escherichia coli and against Staphylococcus capitis were 50 µM (≈ 15.7 µg/mL) and more than 200 µM, respectively.

For `CCCCC[C@H](CN(O)C=O)C(=O)N[C@H](C(=O)N(C)C)C(C)(C)C`, the minimal inhibitory concentration (MIC) against Escherichia coli and against Staphylococcus capitis was 25 µM (≈ 8.59 µg/mL) in each case.

For `C[C@H](CN(O)C=O)C(=O)N[C@H](C(=O)N(C)C)C(C)(C)C`, the MIC against Escherichia coli and with Staphylococcus capitis was more than 200 µM throughout.
